Earlier results in patent publication US6344215B1, “Methylphenidate modified release formulations” (Eurand America, Inc., priority 2000, dated 2002).
Counter-ions that a name gives are not always drawn.

Conditions: gastrointestinal tract

SMILES: COC(=O)C(c1ccccc1)C1CCCCN1 (stereo not shown) [Methylphenidate Hydrochloride]
- absorption: well absorbed throughout the gastrointestinal tract
